Laboratory results as given in a melting point compilation (Tetko et al.; mined from patent text by program, amines drawn as free bases though some values may be those of a salt).

Point of comparison: `Cc1ccnc(-c2cccnc2)c1OC1SCC(O)C(O)C1O` (stereo not given), melting point 98 °C. Against it:
- Cc1cc(Br)cnc1CCCCNc1ncc(Cc2cccnc2)cc1O — higher, 164 to 166 °C
- N#CC(C#N)=CN(N=C(C#N)C#N)c1ccc(F)cc1 — higher, 138 to 139 °C
- CC(C)(C)OC(=O)C(Nc1ccccc1)c1cccc(Cl)c1 (racemic) — lower, 96 °C
- O=C1COc2cc3c(cc21)C1(CO3)C(=O)N(CC2CCCO2)c2ccccc21 (stereo not given) — higher, 142 to 144 °C
- COc1cc(O)c(C=O)c2cc(-c3ccc(O)cc3)oc12 — higher, 254 to 255 °C
- COc1cc(OC)nc(NC(=O)NS(=O)(=O)c2ncccc2OS(=O)(=O)N(C)C)n1 — higher, 155 to 157 °C
- COc1ccc(-n2c(=O)[nH]c3c(C(N)=O)nc(-c4cccc(O)c4)nc32)c(C)c1 — higher, 355 to 357 °C
- O=C1c2ccccc2C(=O)N1CCCCI — lower, 85 to 87 °C
- COc1cccc(C(=O)N2CCc3cc(O)c(OC)cc3C2=O)c1 — higher, 198 to 199 °C
- CCOC(=O)Nc1ccc2nc(S(N)(=O)=O)sc2c1 — higher, 223 to 224 °C
- Cc1ncnn1-c1ccccc1C#N — higher, 119 to 120 °C
- CN(CCc1cccc(OCC(=O)O)c1)c1cnc(-c2ccccc2)c(-c2ccccc2)n1 — higher, 174 to 176 °C
- O=C(CCCN1CC=C(c2cccc3[nH]ccc23)CC1)c1ccc(F)cc1 — higher, 155 °C
- O=C(c1ccccc1)C1CCCS1(=O)=O (stereo not given) — lower, 90 to 94 °C
- Cc1nc(C(C)C)c(S(=O)(=O)c2ccccc2)n1COCc1ccccc1 — higher, 116 to 117 °C
- CCCc1nc(C)cc(=O)n1CCOc1ccc(CC2SC(=O)NC2=O)cc1 (stereo not given) — higher, 144 to 146 °C
- CCOC(=O)Cc1c(C)c2ccc(O)cc2oc1=O — higher, 167 to 168 °C
- CCCCc1nc(C(C)O)c(C(=O)O)n1Cc1ccc(-c2ccccc2-c2nnn[nH]2)cc1 (stereo not given) — higher, 214 to 217 °C
- O=C(NCc1ccc(C(F)(F)F)c(N2CCCCC2)c1)Nc1cccc2c1CC(O)CC2 (stereo not given) — higher, 163 °C
- CCOc1nn(Cc2ccc(OCc3nc(-c4ccccc4)oc3C)nc2)cc1CCC(=O)O — higher, 143 to 144 °C
- CCOC(=O)C1=NN=C(c2ccc(OC)c(OC)c2)c2cc(OC)c(OC)cc2C1CC (stereo not given) — higher, 178 to 180 °C
- CC(=O)NCc1ccc(Cl)nc1 — lower, 76 to 77 °C
- O=C1CC(c2ccc(O)cc2O)Oc2cc(O)cc(O)c21 (stereo not given) — higher, 258 to 259 °C
- COc1cccc2c(CCCN(CC3CC3)C3COc4c(F)ccc(C(N)=O)c4C3)coc12 (stereo not given) — higher, 125 to 132 °C
- CC(C)(C)OC(=O)NCC1(O)CCNCC1 — higher, 136 to 138 °C
- COc1c(Sc2ccccc2)c2cccnc2n1-c1ccccc1 — lower, 86 to 87.5 °C
- CCn1cc(Cl)nc(SCC(=O)Nc2ccccc2)c1=O — higher, 156 to 158 °C
- CC(=O)c1cc2cccc(OC3SCC(O)C(O)C3O)c2o1 (stereo not given) — higher, 116 to 120 °C
- O=C(CCCO)c1cccnc1 — lower, 36 to 37 °C
- CS(=O)(=O)c1ccc(OC(Cc2ccc(OCCNC(=O)c3ccc(-c4ccccn4)cc3)cc2)C(=O)O)cc1 (stereo not given) — higher, 231 to 233 °C
- COC(=O)c1c(C(F)F)nc(C(F)(F)F)c(C(=O)OC)c1CI — lower, 78 to 79 °C
- CCOc1ccc(Nc2nc(NC(CO)CO)nc(N(C)C3CCN(C)CC3)n2)cc1Cl — lower, 84 °C
- Cn1c(C(F)(F)F)cc(=O)n(-c2ccc3snc(C(=O)NS(C)(=O)=O)c3c2)c1=O — higher, 241 to 243 °C
- C[C@H](O)[C@@H](O)[C@@H](O)C(=O)CO — higher, 158 to 160 °C
- COc1cc2c(cc1OC)CC(N)CC2 (stereo not given) — lower, 83 to 86 °C
- CCn1cc(CN(C(=O)C2CCCc3cc(O)ccc32)c2ccc(C(C)C)cc2)cn1 (stereo not given) — higher, 146 to 147 °C
- NC(=O)CN1C[C@@H](c2ccccc2)CC1=O — higher, 108 °C
- COC(=O)C1CCC(C(=O)Nc2sc3c(c2C(=O)NCc2ccc4c(c2)OCO4)CCCC3)CC1 (stereo not given) — higher, 173 °C
- CC1CCN(CCCC(=O)c2ccc3sc4ccc(C(=O)CCCN5CCC(C)CC5)cc4c3c2)CC1 — higher, 136 to 138 °C
